Experimental data published in article PMC4865845, “A human genome-wide loss-of-function screen identifies effective chikungunya antiviral drugs” (Nature Communications, 2016).
pIC50: −log10 of the molar value. Where two headings read alike, the source gives them in different places.

Tests used:
[1] = tested on: CHIKV; test: microbe, parasite or virus in culture; format: cell-based, chikungunya virus; conditions: HEK-293 cells pretreated with dilutions of each drug, CHIKV-GFP, 18 h p.i.
[2] = tested on: HEK-293 cells; test: Cell viability, Cell Proliferation Reagent WST-1; format: cell-based, human; conditions: read-out: WST-1 IC50
Description: To exclude the possible cytotoxic effects, all compounds were additionally tested using the ‘Cell Proliferation Reagent WST-1' (Roche Diagnostics). HEK-293 cells were treated with the same concentrations of the various substances and 18 h later WST-1 was added. Readout was conducted using the EnVision Multilabel Reader (PerkinElmer).

[3] = tested on: CHIKV C21; test: Intradermal CHIKV infection model of neonatal mice
[4] = tested on: CHIKV replicon; test: CHIKV replicon dual-luciferase assay (genomic and subgenomic vRNA expression); format: cell-based, chikungunya virus; conditions: HeLa cells, inhibitor from 1 h p.i., read 8 h p.i.
[5] = tested on: HeLa cells; test: Cell viability, CellTiter-Glo kit; conditions: end of the 1 h infection + 7 h treatment experiment
[6] = tested on: CHIKV C21; test: Quantitative RT-PCR of cell- and supernatant-associated vRNA; format: cell-based, chikungunya virus; conditions: HeLa; for vRNA synthesis (cell-associated vRNA) / viral release in the supernatants (supernatant-associated vRNA): CHIKV C21 MOI 50 for 1 h, then drug 7 h: cerulenin 50 μM, TOFA 25 μM, pimozide 10 μM, W7 20 μM, tivozanib 5 μM; for vRNA replication, delayed treatment / viral release, delayed treatment: CHIKV-infected, drugs from 6 to 8 h p.i.
[7] = tested on: HeLa cells; test: Real-time cell toxicity assay (xCELLigence)
[8] = tested on: CHIKV C21; format: in vivo, C57BL/6 mice; conditions: adult mice pretreated at least 3 days (pimozide 20 mg kg−1 per os; TOFA 25 mg kg−1 i.p.), 18 h p.i.
[9] = tested on: CHIKV C21; test: Single-cycle CHIKV C21 infection, drug 2 h before or 2 h after infection (flow cytometry of capsid; supernatant infectivity on Vero cells); format: cell-based, chikungunya virus; conditions: Supplementary Fig. 5a
[10] = tested on: CHIKV; format: cell-based, chikungunya virus
[11] = 0.5 mg kg−1 per os daily from day 7, infected at day 9, continued 21 days

COc1cc(N2CCC(N3CCN(C)CC3)CC2)ccc1Nc1ncc(Cl)c(Nc2ccccc2S(=O)(=O)C(C)C)n1 [TAE684]
pIC50 ([1]; Chikungunya virus, HEK293): 6.82 | pIC50 ([2]; Homo sapiens, HEK293, 18 h): 5.68

CCCCCCCCCCCCCCOc1ccc(C(=O)O)o1 [TOFA, 5-tetradecyloxy-2-furoic acid]
impact on mouse growth ([3]; neonatal mice): detectable impact on mouse growth | genomic and subgenomic vRNA synthesis [4]: significant and dose-dependent reduction | pIC50 ([1]; Chikungunya virus, HEK293): 6.82 | cell toxicity [5]: no detectable cell toxicity | pIC50 ([2]; Homo sapiens, HEK293, 18 h): < 4.22 | vRNA synthesis (cell-associated vRNA) [6]: significantly reduced vRNA synthesis | viral release in the supernatants (supernatant-associated vRNA) [6]: strongly inhibited viral release | vRNA replication, delayed treatment [6]: only a minor impact on vRNA replication | viral release, delayed treatment [6]: major defect in viral release | effect on cell viability [7]: no deleterious effect on cell viability | CHIKV titres in the footpad (replication) [8]: significantly reduced replication

COc1cc2nccc(Oc3ccc(NC(=O)Nc4cc(C)on4)c(Cl)c3)c2cc1OC [Tivozanib]
body weight gain [3, 11]: positive impact on body weight gain | mortality of CHIKV-infected mice [3, 11]: significant reduction in mortality | onset of paralysis [3, 11]: protected from the onset of paralysis | CHIKV viral load in organs ([3]; 3 days post infection, 0.5 mg kg−1 per os): significantly reduced CHIKV viral load | pIC50 ([1]; Chikungunya virus, HEK293): 6.10 | cell toxicity [5]: no detectable cell toxicity | pIC50 ([2]; Homo sapiens, HEK293, 18 h): 5.08 | vRNA synthesis (cell-associated vRNA) [6]: significantly reduced vRNA synthesis | viral release in the supernatants (supernatant-associated vRNA) [6]: strongly inhibited viral release | vRNA replication, delayed treatment [6]: only a minor impact on vRNA replication | viral release, delayed treatment [6]: major defect in viral release

KH-CB19
inhibition of CHIKV infection at early times p.i. [9]: incomplete inhibition | pIC50 [1]: 5.47 | pIC50 ([2]; HEK-293 cell viability, 18 h, * = treatment induced <50% cell death): 4.96

s51652 (sense CCAGGCCCATTCTACAATA; chemistry not given here)
Score_si4 [10]: 0.04

s51653 (sense GCACCTTGCAGGATTGGAA; chemistry not given here)
Score_si3 [10]: 0.68

s194444 (sense GCTGCGTCTCCCTTCCAAA; chemistry not given here) [reference compound]
Score_si4 [10]: -0.58

s194476 (sense GCATGCTGCTGGCAGATCA; chemistry not given here)
Score_si2 [10]: 1.47

s195060 (sense CCAGATCTATGAATTGGAA; chemistry not given here)
Score_si2 [10]: 1.92

s195061 (sense CTGTATGGCTTCTATATAA; chemistry not given here)
Score_si4 [10]: 1.03

s195093 (sense AGCTGTCCCTCTTTGCTGT; chemistry not given here) [reference compound]
Score_si3 [10]: -0.16

s195094 (sense CCTCTTCCACCGCTACTTC; chemistry not given here) [reference compound]
Score_si2 [10]: -0.76

s195100 (sense GGGTGAATGTAGACCCTGA; chemistry not given here)
Score_si3 [10]: 1.95

s195299 (sense ACACATATGTGATCAAGCT; chemistry not given here)
Score_si4 [10]: 0.72

s195642 (sense GGTGAGGACAAGTTCCAGT; chemistry not given here)
Score_si3 [10]: 0.49

s195643 (sense CCCTAGGCGCTGGATTTTG; chemistry not given here)
Score_si4 [10]: 0.23

s195938 (sense ATTTATCTCTGCATCGACA; chemistry not given here) [reference compound]
Score_si3 [10]: -0.51

s195939 (sense GCGGCTGATTTATCTCTGC; chemistry not given here) [reference compound]
Score_si4 [10]: -0.22
